Patent US20220323406A1, “METHODS AND COMPOSITIONS FOR DIFFERENTIATING STEM CELLS” (Massachusetts Institute of Technology, priority 2019, published 2022)
Structures can show the parent of a compound that is named as a salt.

What was measured:
[1] = tested on: ENR+CD organoids; assay: Primary screen: ATP (CellTiter-Glo 3D, CTG) cell number/viability, 2.5-D 384-well ENR+CD organoids;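 note: compounds given at plating and again on day 3 over a 6-day differentiation from ENR+CV stem-cell-enriched precursors, ATP measured on day 6, plate median as control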
[2] = tested on: ENR+CD organoids (ISC to Paneth cell differentiation); assay: Primary screen: basal (non-stimulated) lysozyme secretion LYZ.NS, 2.5-D 384-well ENR+CD organoid differentiation; type: cell-based, mouse
Source text: (§1) High-throughput screening.

[3] = tested on: ENR+CD organoids (ISC to Paneth cell differentiation); assay: Primary screen: CCh-stimulated lysozyme secretion LYZ.S, 2.5-D 384-well ENR+CD organoid differentiation; type: cell-based, mouse; settings: primary screen
Source text: as §1

[4] = primary screen, dose 0.08 uM, FC relative to plate median
[5] = primary screen, dose 0.40 uM, FC relative to plate median
[6] = primary screen, dose 2.00 uM, FC relative to plate median
[7] = primary screen, dose 10.00 uM, FC relative to plate median
[8] = primary screen, dose 0.08 uM, standard z score
[9] = primary screen, dose 0.40 uM, standard z score
[10] = primary screen, dose 2.00 uM, standard z score
[11] = primary screen, dose 10.00 uM, standard z score
[12] = dose 0.08 uM, FC relative to plate median
[13] = dose 0.40 uM, FC relative to plate median
[14] = dose 2.00 uM, FC relative to plate median
[15] = dose 10.00 uM, FC relative to plate median
[16] = primary screen, standard z score, dose 0.08 uM
[17] = primary screen, standard z score, dose 0.40 uM
[18] = primary screen, standard z score, dose 2.00 uM
[19] = primary screen, standard z score, dose 10.00 uM

Molecule	Dose.FC.CTG ([1]; primary screen, dose 0.08 uM) [log2 fold change]	Dose.FC.CTG ([1]; primary screen, dose 0.40 uM) [log2 fold change]	Dose.FC.CTG ([1]; primary screen, dose 2.00 uM) [log2 fold change]	Dose.FC.CTG ([1]; primary screen, dose 10.00 uM) [log2 fold change]	Dose.FC.LYZ.NS ([2]; primary screen, dose 0.08 uM) [log2 fold change]	Z.LYZ.NS (standard z score) ([2]; primary screen, dose 0.08 uM)	Dose.FC.LYZ.NS ([2]; primary screen, dose 0.40 uM) [log2 fold change]	Z.LYZ.NS (standard z score) ([2]; primary screen, dose 0.40 uM)	Dose.FC.LYZ.NS ([2]; primary screen, dose 2.00 uM) [log2 fold change]	Z.LYZ.NS (standard z score) ([2]; primary screen, dose 2.00 uM)	Dose.FC.LYZ.NS ([2]; primary screen, dose 10.00 uM) [log2 fold change]	Z.LYZ.NS (standard z score) ([2]; primary screen, dose 10.00 uM)	Dose.FC.LYZ.S ([3]; dose 0.08 uM) [log2 fold change]	Dose.FC.LYZ.S ([3]; dose 0.40 uM) [log2 fold change]	Dose.FC.LYZ.S ([3]; dose 2.00 uM) [log2 fold change]	Dose.FC.LYZ.S ([3]; dose 10.00 uM) [log2 fold change]	Dose.FC.CTG (log2 fold change) ([1]; primary screen, dose 0.08 uM)	Z.CTG (standard z score) ([1]; primary screen, dose 0.08 uM)	Dose.FC.LYZ.NS (log2 fold change) ([2]; primary screen, dose 0.08 uM)	Dose.FC.LYZ.S (log2 fold change) ([3]; dose 0.08 uM)	also measured
Cn1c(N2CCCCS2(=O)=O)nc(C(=O)NCc2ccc(F)cc2)c(O)c1=O [BMS-707035]	0.318	0.238	0.279	0.138	0.107	0.933	0.135	1.174	0.110	0.955	0.070	0.613	0.134	0.182	0.048	0.050					
CC(=O)OCC(=O)NCCCOc1cccc(CN2CCCCC2)c1 [Roxatidine Acetate HCl]																					Dose.FC.CTG [1, 4]: −0.040 log2 fold change; Dose.FC.CTG [1, 5]: 0.021 log2 fold change; Dose.FC.CTG [1, 6]: −0.103 log2 fold change; Dose.FC.CTG [1, 7]: −0.236 log2 fold change; Dose.FC.LYZ.NS [2, 4]: 0.149 log2 fold change; Z.LYZ.NS [2, 8]: 1.295; Dose.FC.LYZ.NS [2, 5]: −0.029 log2 fold change; Z.LYZ.NS [2, 9]: −0.256; Dose.FC.LYZ.NS [2, 6]: −0.001 log2 fold change; Z.LYZ.NS [2, 10]: −0.009; Dose.FC.LYZ.NS [2, 7]: −0.061 log2 fold change; Z.LYZ.NS [2, 11]: −0.534; Dose.FC.LYZ.S [3, 12]: 0.035 log2 fold change; Dose.FC.LYZ.S [3, 13]: 0.099 log2 fold change; Dose.FC.LYZ.S [3, 14]: −0.053 log2 fold change; Dose.FC.LYZ.S [3, 15]: −0.104 log2 fold change
CCOC(=O)c1cncn1[C@H](C)c1ccccc1 [Etomidate]	0.084	0.006	0.163	0.039	−0.008		0.037		0.015		−0.001		0.053	0.048	0.054	−0.008					Z.LYZ.NS [2, 16]: −0.065; Z.LYZ.NS [2, 17]: 0.318; Z.LYZ.NS [2, 18]: 0.131; Z.LYZ.NS [2, 19]: −0.010
Cc1ccc2c(=O)c3cccc(CC(=O)O)c3oc2c1C [DMXAA (Vadimezan)]	−0.568	−0.629	−0.477	−0.230	−0.007		−0.036		−0.038		−0.031		−0.091	−0.009	−0.094	−0.118					Z.CTG [1, 16]: −1.357; Z.CTG [1, 17]: −1.502; Z.CTG [1, 18]: −1.139; Z.CTG [1, 19]: −0.550; Z.LYZ.NS [2, 16]: −0.065; Z.LYZ.NS [2, 17]: −0.317; Z.LYZ.NS [2, 18]: −0.334; Z.LYZ.NS [2, 19]: −0.271
Oc1ccc2ccccc2c1SSc1c(O)ccc2ccccc12 [IPA-3]						0.031		0.028		−0.010		−0.186					0.219	0.524	0.004	0.064	Dose.FC.CTG (log2 fold change) ([1]; primary screen, dose 0.40 uM): −0.332; Z.CTG (standard z score) ([1]; primary screen, dose 0.40 uM): −0.793; Dose.FC.CTG (log2 fold change) ([1]; primary screen, dose 2.00 uM): −0.084; Z.CTG (standard z score) ([1]; primary screen, dose 2.00 uM): −0.202; Dose.FC.CTG (log2 fold change) ([1]; primary screen, dose 10.00 uM): −0.054; Z.CTG (standard z score) ([1]; primary screen, dose 10.00 uM): −0.128; Dose.FC.LYZ.NS (log2 fold change) ([2]; primary screen, dose 0.40 uM): 0.003; Dose.FC.LYZ.NS (log2 fold change) ([2]; primary screen, dose 2.00 uM): −0.001; Dose.FC.LYZ.NS (log2 fold change) ([2]; primary screen, dose 10.00 uM): −0.021; Dose.FC.LYZ.S (log2 fold change) ([3]; dose 0.40 uM): −0.031; Dose.FC.LYZ.S (log2 fold change) ([3]; dose 2.00 uM): 0.067; Dose.FC.LYZ.S (log2 fold change) ([3]; dose 10.00 uM): −0.054
NC(=O)c1ccc(I)c([N+](=O)[O-])c1 [Iniparib (B5I-201)]						0.364											0.339	0.810	0.042	0.032	
CCc1c2c(nc3ccc(OC(=O)N4CCC(N5CCCCC5)CC4)cc13)-c1cc3c(c(=O)n1C2)COC(=O)[C@]3(O)CC [Irinotecan HCl Trihydrate]						−0.162		−0.805		−1.925		−2.368					−0.083		−0.019	−0.040	Dose.FC.CTG (log2 fold change) ([1]; primary screen, dose 0.40 uM): −0.205; Dose.FC.CTG (log2 fold change) ([1]; primary screen, dose 2.00 uM): −0.317; Dose.FC.CTG (log2 fold change) ([1]; primary screen, dose 10.00 uM): −0.588; Dose.FC.LYZ.NS (log2 fold change) ([2]; primary screen, dose 0.40 uM): −0.092; Dose.FC.LYZ.NS (log2 fold change) ([2]; primary screen, dose 2.00 uM): −0.221; Dose.FC.LYZ.NS (log2 fold change) ([2]; primary screen, dose 10.00 uM): −0.272; Dose.FC.LYZ.S (log2 fold change) ([3]; dose 0.40 uM): −0.158; Dose.FC.LYZ.S (log2 fold change) ([3]; dose 2.00 uM): −0.293; Dose.FC.LYZ.S (log2 fold change) ([3]; dose 10.00 uM): −0.367
BAM7	0.209	−0.010	−0.156	−0.114	0.045	0.391	−0.009	−0.082	0.057	0.498	−0.007	−0.063	0.079	0.039	0.019	−0.020		0.498			Z.CTG (standard z score) ([1]; primary screen, dose 0.40 uM): −0.024; Z.CTG (standard z score) ([1]; primary screen, dose 2.00 uM): −0.373; Z.CTG (standard z score) ([1]; primary screen, dose 10.00 uM): −0.272
CO[C@H]1C[C@@H]2CC[C@@H](C)[C@@](O)(O2)C(=O)C(=O)N2CCCC[C@H]2C(=O)O[C@H]([C@H](C)C[C@@H]2CC[C@@H](OP(C)(C)=O)[C@H](OC)C2)CC(=O)[C@H](C)/C=C(\C)[C@@H](O)[C@@H](OC)C(=O)[C@H](C)C[C@H](C)/C=C/C=C/C=C/1C [Ridaforolimus (Deforolimus, MK-8669)]																					Dose.FC.CTG [1, 4]: 0.423 log2 fold change; Z.CTG [1, 8]: 1.011; Dose.FC.CTG [1, 5]: 0.066 log2 fold change; Z.CTG [1, 9]: 0.157; Dose.FC.CTG [1, 6]: 0.276 log2 fold change; Z.CTG [1, 10]: 0.659; Dose.FC.CTG [1, 7]: 0.211 log2 fold change; Z.CTG [1, 11]: 0.505; Dose.FC.LYZ.NS [2, 4]: 0.005 log2 fold change; Z.LYZ.NS [2, 8]: 0.041; Dose.FC.LYZ.NS [2, 5]: 0.116 log2 fold change; Z.LYZ.NS [2, 9]: 1.012; Dose.FC.LYZ.NS [2, 6]: 0.074 log2 fold change; Z.LYZ.NS [2, 10]: 0.646; Dose.FC.LYZ.NS [2, 7]: 0.027 log2 fold change; Z.LYZ.NS [2, 11]: 0.237; Dose.FC.LYZ.S [3, 12]: 0.050 log2 fold change; Dose.FC.LYZ.S [3, 13]: 0.069 log2 fold change; Dose.FC.LYZ.S [3, 14]: 0.019 log2 fold change; Dose.FC.LYZ.S [3, 15]: 0.039 log2 fold change
